Key:
Assay type in all cases: in vivo
IL-17 = assay: TNBS rat colitis: colonic IL-17 mRNA by real-time PCR; conditions: colon, oral daily 7 days, mean ± SEM
Description: (§1) Female Wistar rats (180-200 g) were randomly assigned to nine groups (n=10). Three groups received treatment with CaPyr (20, 40 and 100 mg/kg); other three received treatment with ethyl pyruvate (20, 40 and 100 mg/kg); and the remaining was treated with sulphasalazine (30 mg/kg). All compounds were dissolved in 1 ml of carboxymethylcellulose (0.2%) in water solution, and administered daily by oral gavage. An untreated TNBS control group and a non-colitic group were included for reference, which received the vehicle used to administer the test compounds. Colonic inflammation was induced in control and treated groups as generally described (see Galvez et al. 2014). Briefly, rats were fasted overnight, anesthetized with halothane and given TNBS dissolved in 0.25 ml of 50% ethanol (v/v) by means of a Teflon cannula inserted 8 cm through the anus. During and after TNBS administration, the rats were kept in a head-down position until they recovered from anaesthesia, and then returned to their cages. Rats from the non-colitic group were administered intracolonically 0.25 ml of phosphate buffered saline instead of TNBS. The treatments were given from the day of the colitis induction until the sacrifice of the rats with an overdose of halothane, seven days later. Animal body weights, occurrence of diarrhoea, and water and food intake were recorded daily throughout all the experiments. Once the animals were sacrificed, the colon was removed aseptically and placed on an ice-cold plate, longitudinally opened and cleaned from their luminal contents with cold saline. Afterwards, it was weighed and its length measured under a constant load (2 g). Each colon was scored for macroscopically visible damage on a 0-10 scale by two observers unaware of the experiment, according to the criteria described before (see Galvez et al. 2014). Colon samples (0.5 cm^2) containing all the layers were taken from a region of the inflamed colon corresponding to the adjacent segment to the gross macroscopic damage and were fixed in 4% buffered formaldehyde for the histological studies. Equivalent colonic segments were also obtained from the non-colitic group. The colon was subsequently minced, aliquoted and kept frozen at −80° C. until biochemical determinations and RNA extraction was performed.
(§2) Analysis of gene expression in colonic samples by RT-qPCR Total RNA from colonic samples was isolated using Trizol® (Thermo Fisher Scientific Inc., Waltham, Mass. USA) following the manufacturer's protocol. All RNA samples were quantified with the Thermo Scientific NanoDrop™ 2000 Spectrophotometer (Thermo Fisher Scientific Inc., Waltham, Mass. USA) and […] of RNA were reverse transcribed using oligo(dT) primers (Promega, Southampton, UK).
(§3) Real time quantitative PCR amplification and detection was performed on optical-grade 48 well plates in an Eco™ Real-Time PCR System (Illumina, CA, USA) with 20 ng of cDNA, the KAPA SYBR® FAST qPCR Master Mix (Illumina, CA, USA) and specific primers at their annealing temperature (Ta). To normalize mRNA expression, the expression of the housekeeping gene, glyceraldehyde-3-phosphate dehydrogenase (GAPDH) was measured. The mRNA relative quantitation was calculated using the ΔΔCt method.

IL-23 = assay: TNBS rat colitis: colonic IL-23 mRNA by real-time PCR; conditions: colon, oral daily 7 days, mean ± SEM
Description: as §1, §2, §3

myeloperoxidase (MPO) = assay: TNBS rat colitis: colonic myeloperoxidase (MPO) activity; conditions: colonic tissue, oral daily 7 days, mean ± SEM
Description: as §1
(§4) Myeloperoxidase (MPO) activity was measured according to the technique described previously (Krawiszet al., 1984); the results were expressed as MPO units per gram of wet tissue; one unit of MPO activity was defined as that degrading 1 μmol hydrogen peroxide/min at 25° C. Total glutathione (GSH) content was quantified with the recycling assay described by Anderson (1985), and the results were expressed as nmol/g wet tissue. In order to evaluate tissue IL-1β levels, the colonic samples were homogenized in phosphate buffered saline supplemented with 0.1% sodium dodecyl sulfate (SDS), 0.1% sodium deoxycholate, 1% Triton X-100 and protease and phosphatase inhibitors (aprotinin, leupeptin and phenylmethylsulfonyl fluoride). The cytokine was quantified by enzyme-linked immunoabsorbent assay (R&D Systems Inc., Minneapolis, Minn., USA) and the results were expressed as pg/g wet tissue.

CINC-1 = assay: TNBS rat colitis: colonic CINC-1 mRNA by real-time PCR; conditions: colon, oral daily 7 days, mean ± SEM
Description: as §1, §2, §3

ICAM-1 = assay: TNBS rat colitis: colonic ICAM-1 mRNA by real-time PCR; conditions: colon, oral daily 7 days, mean ± SEM
Description: as §1, §2, §3

IL-12 = assay: TNBS rat colitis: colonic IL-12 mRNA by real-time PCR; conditions: colon, oral daily 7 days, mean ± SEM
Description: as §1, §2, §3

MCP-1 = assay: TNBS rat colitis: colonic MCP-1 mRNA by real-time PCR; conditions: colon, oral daily 7 days, mean ± SEM
Description: as §1, §2, §3

MUC-2 = assay: TNBS rat colitis: colonic MUC-2 mRNA by real-time PCR; conditions: colon, oral daily 7 days, mean ± SEM
Description: as §1, §2, §3

IL-6 = assay: TNBS rat colitis: colonic IL-6 mRNA by real-time PCR; conditions: colon, oral daily 7 days, mean ± SEM
Description: as §1, §2, §3

[1] = test system: TNBS experimental rat colitis; assay: TNBS rat colitis: colonic macroscopic damage score and weight/length ratio; conditions: for Damage Score (0-10) / Weight/length: TNBS rat colitis, oral daily 7 days, mean ± SEM; for Weight/length: colon
Description: as §1

IL-1β [2] = assay: TNBS rat colitis: colonic IL-1β mRNA by real-time PCR; conditions: colon, oral daily 7 days, mean ± SEM
Description: as §1, §2, §3

glutathione (GSH) = assay: TNBS rat colitis: colonic total glutathione (GSH) content; conditions: colonic tissue, oral daily 7 days, mean ± SEM
Description: as §1, §4

TFF-3 = assay: TNBS rat colitis: colonic TFF-3 mRNA by real-time PCR; conditions: colon, oral daily 7 days, mean ± SEM
Description: as §1, §2, §3

[3] = test system: TNBS experimental rat colitis; assay: TNBS rat colitis: microscopic (histological) damage score; conditions: oral daily 7 days, mean ± SEM
Description: as §1
Cross-sections were selected and embedded in paraffin. Full-thickness sections of 5 μm were obtained at different levels and stained with haematoxylin and eosin. The histological damage was evaluated by a pathologist observer, who was blinded to the experimental groups, according to the criteria previously described by Galvez.

iNOS = assay: TNBS rat colitis: colonic iNOS mRNA by real-time PCR; conditions: colon, oral daily 7 days, mean ± SEM
Description: as §1, §2, §3

IL-1β [4] = assay: TNBS rat colitis: colonic IL-1β by ELISA; conditions: colonic tissue, oral daily 7 days, mean ± SEM
Description: as §1, §4

CCOC(=O)C(C)=O [EtPyr, ethyl pyruvate]
IL-17 mRNA expression (IL-17; 20 mg/kg): 1.17 ± 0.27 fold increase | IL-17 mRNA expression (IL-17; 40 mg/kg): 1.74 ± 0.33 fold increase | IL-17 mRNA expression (IL-17; 100 mg/kg): 2.34 ± 0.30 fold increase | IL-23 mRNA expression (IL-23; 20 mg/kg): 1.68 ± 0.39 fold increase | IL-23 mRNA expression (IL-23; 40 mg/kg): 1.56 ± 0.27 fold increase | IL-23 mRNA expression (IL-23; 100 mg/kg): 1.80 ± 0.21 fold increase | MPO (myeloperoxidase (MPO); 20 mg/kg): 58.1 ± 11.9 mU/g tissue | MPO (myeloperoxidase (MPO); 40 mg/kg): 61.5 ± 9.8 mU/g tissue | MPO (myeloperoxidase (MPO); 100 mg/kg): 54.7 ± 10.8 mU/g tissue | CINC-1 mRNA expression (CINC-1; 20 mg/kg): 4.40 ± 0.65 fold increase | CINC-1 mRNA expression (CINC-1; 40 mg/kg): 4.40 ± 0.57 fold increase | CINC-1 mRNA expression (CINC-1; 100 mg/kg): 4.40 ± 0.90 fold increase | ICAM-1 mRNA expression (ICAM-1; 20 mg/kg): 1.39 ± 0.19 fold increase | ICAM-1 mRNA expression (ICAM-1; 40 mg/kg): 2.27 ± 0.38 fold increase | ICAM-1 mRNA expression (ICAM-1; 100 mg/kg): 2.39 ± 0.50 fold increase | IL-12 mRNA expression (IL-12; 20 mg/kg): 1.09 ± 0.13 fold increase | IL-12 mRNA expression (IL-12; 40 mg/kg): 1.81 ± 0.48 fold increase | IL-12 mRNA expression (IL-12; 100 mg/kg): 1.62 ± 0.37 fold increase | MCP-1 mRNA expression (MCP-1; 20 mg/kg): 1.23 ± 0.37 fold increase | MCP-1 mRNA expression (MCP-1; 40 mg/kg): 1.85 ± 0.29 fold increase | MCP-1 mRNA expression (MCP-1; 100 mg/kg): 2.21 ± 0.29 fold increase | MUC-2 mRNA expression (MUC-2; 20 mg/kg): 0.39 ± 0.09 fold increase | MUC-2 mRNA expression (MUC-2; 40 mg/kg): 0.70 ± 0.08 fold increase | MUC-2 mRNA expression (MUC-2; 100 mg/kg): 0.50 ± 0.11 fold increase | IL-6 mRNA expression (IL-6; 20 mg/kg): 5.60 ± 1.41 fold increase | IL-6 mRNA expression (IL-6; 40 mg/kg): 5.60 ± 1.20 fold increase | IL-6 mRNA expression (IL-6; 100 mg/kg): 6.00 ± 1.01 fold increase | Damage Score (0-10) ([1]; 20 mg/kg): 6.6 ± 0.6 | Damage Score (0-10) ([1]; 40 mg/kg): 6.1 ± 0.4 | Damage Score (0-10) ([1]; 100 mg/kg): 6.0 ± 0.5 | Weight/length ([1]; 20 mg/kg): 185.4 ± 31.1 mg/cm | Weight/length ([1]; 40 mg/kg): 172.0 ± 15.8 mg/cm | Weight/length ([1]; 100 mg/kg): 186.4 ± 13.2 mg/cm | effect in TNBS-induced colitis (in words) ([1]; rats, 20, 40 and 100 mg/kg body weight, 7 days oral treatment): intestinal anti-inflammatory effects | IL-1β mRNA expression (IL-1β [2]; 20 mg/kg): 6.90 ± 1.50 fold increase | IL-1β mRNA expression (IL-1β [2]; 40 mg/kg): 7.20 ± 1.20 fold increase | IL-1β mRNA expression (IL-1β [2]; 100 mg/kg): 10.21 ± 1.50 fold increase | GSH (glutathione (GSH); 20 mg/kg): 560 ± 74 nmol/g tissue | GSH (glutathione (GSH); 40 mg/kg): 715 ± 88 nmol/g tissue | GSH (glutathione (GSH); 100 mg/kg): 870 ± 124 nmol/g tissue | TFF-3 mRNA expression (TFF-3; 20 mg/kg): 0.59 ± 0.16 fold increase | TFF-3 mRNA expression (TFF-3; 40 mg/kg): 1.01 ± 0.05 fold increase | TFF-3 mRNA expression (TFF-3; 100 mg/kg): 0.96 ± 0.11 fold increase | Microscopic Damage Score (0-59) ([3]; 20 mg/kg): 25 ± 3 | Microscopic Damage Score (0-59) ([3]; 40 mg/kg): 17 ± 3 | Microscopic Damage Score (0-59) ([3]; 100 mg/kg): 23 ± 3 | iNOS mRNA expression (iNOS; 20 mg/kg): 16.17 ± 2.75 fold increase | iNOS mRNA expression (iNOS; 40 mg/kg): 12.20 ± 1.53 fold increase | iNOS mRNA expression (iNOS; 100 mg/kg): 22.88 ± 2.14 fold increase | IL-1β (ELISA) (IL-1β [4]; 20 mg/kg): 975.0 ± 90.1 ng/g tissue | IL-1β (ELISA) (IL-1β [4]; 40 mg/kg): 1140.0 ± 150.1 ng/g tissue | IL-1β (ELISA) (IL-1β [4]; 100 mg/kg): 975.0 ± 211.7 ng/g tissue

O=C(O)c1cc(/N=N/c2ccc(S(=O)(=O)Nc3ccccn3)cc2)ccc1O [SAZ, sulphasalazine]
IL-17 mRNA expression (IL-17; 30 mg/kg): 2.22 ± 0.54 fold increase | IL-23 mRNA expression (IL-23; 30 mg/kg): 1.26 ± 0.18 fold increase | MPO (myeloperoxidase (MPO); 30 mg/kg): 82.8 ± 8.2 mU/g tissue | CINC-1 mRNA expression (CINC-1; 30 mg/kg): 4.89 ± 0.82 fold increase | ICAM-1 mRNA expression (ICAM-1; 30 mg/kg): 2.90 ± 0.88 fold increase | IL-12 mRNA expression (IL-12; 30 mg/kg): 1.59 ± 0.24 fold increase | MCP-1 mRNA expression (MCP-1; 30 mg/kg): 2.62 ± 0.41 fold increase | MUC-2 mRNA expression (MUC-2; 30 mg/kg): 0.53 ± 0.14 fold increase | IL-6 mRNA expression (IL-6; 30 mg/kg): 4.21 ± 0.80 fold increase | Damage Score (0-10) ([1]; 30 mg/kg): 6.7 ± 0.4 | Weight/length ([1]; 30 mg/kg): 180.4 ± 16.9 mg/cm | IL-1β mRNA expression (IL-1β [2]; 30 mg/kg): 9.70 ± 0.90 fold increase | GSH (glutathione (GSH); 30 mg/kg): 900 ± 118 nmol/g tissue | TFF-3 mRNA expression (TFF-3; 30 mg/kg): 0.91 ± 0.12 fold increase | Microscopic Damage Score (0-59) ([3]; 30 mg/kg): 30 ± 5 | iNOS mRNA expression (iNOS; 30 mg/kg): 16.47 ± 2.75 fold increase | IL-1β (ELISA) (IL-1β [4]; 30 mg/kg): 840.0 ± 120.0 ng/g tissue

Reference: patent publication US20170087106A1, “Method for supporting gut health” (priority 2015, published 2017)
